According to patent publication US8507506B2, “Theophylline derivative inhibits osteoporosis” (Kaohsiung Medical University, priority 2011, dated 2013):
Marks after values point to notes of the source that are not given here.

Columns and labels:
Type in all cases: cell-based
[1] = test system: TNF-α secretion by RAW264.7 cells; assay: ELISA, RANKL-induced secretion of TNF-α; conditions: RAW264.7, ELISA, FIG. 6
Protocol: Under RANKL stimulation, mononuclear RAW264.7 cells can secrete pro-inflammatory cytokines such as TNF-α, IL-1, IL-6, etc. ELISA is used to measure that KMUP-1 influences RANKL to induce the secretion of pro-inflammatory cytokines. […] 10^5 cells were plated per well in 24-well plates. […] After 24 hours reaction, the reaction fluid was centrifuged (13,000 rpm, 4° C., 20 minutes), and then the supernatant was tasted by ELISA kit (R&D system and eBioscience™) to detect the amount of TNF-α, IL-1β, IL-6, and IL-10. The experimental process is followed with the instructions of the kit.

[2] = test system: c-Src mRNA in RAW264.7 cells; assay: RT-PCR, RANKL-induced mRNA expression of c-Src; conditions: for RANKL-induced mRNA expression level of c-Src: RAW264.7 cells, 24 hours, CTL 100%, mean ± SEM
From the text: (§1) The culture medium was discarded. […] [table] f) Running • A.

[3] = test system: p65 in the cell nucleus of RAW264.7 cells; assay: Western blot, amount of p65 in nuclei induced by RANKL; conditions: KMUP-1 in advance 24 hours, RANKL 30 minutes, FIG. 8(B)
Protocol: IκBα which originally binds with NF-κB to inhibit its activity in cytoplasm is stimulated by RANKL to be phosphorylized and be hydrolyzed after separating from NF-κB. Then, the free NF-κB transfers into a cell nucleus to play a role as a transcription factor. According to the experimental result, compared with the control group, in the group induced by RANKL for 30 minutes, the IκBα in the cytoplasm is obviously phosphorylized and hydrolyzed. […] According to the result, KMUP-1 can inhibit NF-κB activation induced by RANKL. Nuclear proteins were extracted according to the instructions of NE-PER kit. 2.5×10^6 cells were plated per well in 24-well plates. […] Subsequently, the cells were added by 5.5 μ[…] and shaken for 5 seconds and then put on ice for 1 minute. After that, the cells were shaken again for 5 seconds and centrifuged (10,000 rpm, 4° C., 5 minutes). Cytoplasm and Nuclei could be separated by this process, and the supernatant was cytoplasmic proteins, and the pallet was nuclei. The supernatant was stored in an eppendorf in -80° C. b) Extraction of Nuclear Proteins The nuclear pallet was added by 500 μl PBS and centrifuged (10,000 rpm, 4° C., 5 minutes), and the supernatant was discarded. The pallet could be washed by this process and prevented contamination. […]

[4] = test system: RAW264.7 cells stimulated by RANKL; assay: TRAP stain, differentiation into multinuclear osteoclast-like cells; conditions: 10 ng/ml RANKL for 5 days, FIG. 3
Protocol: 10^3 cells were plated per well in 96-well plates. […] PBS, 50 μl/well fluid was left. […] 50 μl/well fluid was left, and then Substrate 200 μl/well was added to react for 15 minutes in room temperature. After the cells were stained in red, the cells were washed by ddH2O. At last, the cells were observed and taken pictures by an optical microscopy (40× and 200×), and Autopano Pro V1.4.2, Kolor, Paris, was used to proceed the pictures taken in 40×. Then, the number of the osteoclasts with at least three nuclei was counted and compared with the control group. […] Fixative solution: Citrate solution 25 ml, Acetone 65 ml, 37% Formaldehyde 8 ml. Stored in dark in 4° C. • 2. Citrate solution: 18 mM citric acid, 9 mM sodium citrate, and 12 mM NaCl were solved in 100 ml water, pH 3.6, and then 0.001% Triton X-100 was added at last. • 3. Substrate: 2 mg AS-MX (Naphthol As-Mx-phosphate disodium) and 6 mg Fast Red Violet LB were solved in 1 M Sodium tartrate acetone (0.1 M, pH 5) and 0.1 M, 19 ml sodium acetate.

[5] = test system: Fra-1 mRNA in RAW264.7 cells; assay: RT-PCR, RANKL-induced mRNA expression of Fra-1; conditions: for RANKL-induced mRNA expression level of Fra-1: RAW264.7 cells, 24 hours, CTL 100%, mean ± SEM
From the text: as §1

[6] = test system: NFATc1 protein in RAW264.7 cells; assay: Western blot, expression of NFATc1 induced by RANKL; conditions: 5 μM, 7.5 μM and 10 μM, RANKL 24 hours, FIG. 13
Protocol: The proteins were collected by scraping and were centrifuged (13,000 rpm, 4° C., 30 minutes). The supernatant was stored in an eppendorf in −80° C. • c) Concentrations of the proteins were examined by Bio-Red DC Protein Assay. After knowing the concentrations, the proteins were diluted to specific concentrations by adding ddH2O. One forth volume of the diluted proteins of sample buffer was added into the diluted proteins and was put in boiled water for 5 min and then was chilled on ice for 5 minutes. After short time centrifugation, the diluted proteins could be injected into wells of a gel. The gel was run at 100 V for 10 minutes until the proteins were driven to the intersection between a loading gel and a running gel. Then, the voltage was swopped to 200 V for 40 minutes. • d) A PVDF membrane was immersed in Methanol for 2 minutes. After two washes in ddH2O, the membrane was immersed in transfer buffer for 15 minutes. A SDS-PAGE was put on the membrane, and wet paper was flanked them. The proteins were transferred to the PVDF membrane using a semi-dry transfer at 20 V for 30 minutes. • e) The band of the PVDF membrane was trimmed and was added by suitable amount of blocking buffer (5% skim milk in washing buffer) and then was shaken for 1 hour in room temperature to block non specific bindings. Then, the band was covered by a diluted 1° antibody overnight in 4° C. […]

[7] = 10 ng/ml RANKL, summary of Table 1

Cn1c(=O)c2c(ncn2CCN2CCN(c3ccccc3Cl)CC2)n(C)c1=O [KMUP-1, 7-[2-[4-(2-Chlorophenyl)piperazin-1-yl]ethyl] theophylline]
RANKL-induced secretion of TNF-α [1]: presents a dose dependent inhibition phenomenon | effect on mRNA expression of c-Src induced by RANKL (in words) [2, 7]: not obviously inhibits | RANKL-induced mRNA expression level of c-Src ([2]; RANKL 10 ng/ml + KMUP-1 1 μM): 101.4 ± 4.5% | RANKL-induced mRNA expression level of c-Src ([2]; RANKL 10 ng/ml + KMUP-1 2.5 μM): 103.9 ± 2.7% | RANKL-induced mRNA expression level of c-Src ([2]; RANKL 10 ng/ml + KMUP-1 5 μM): 95.8 ± 2.8% ^ | RANKL-induced mRNA expression level of c-Src ([2]; RANKL 10 ng/ml + KMUP-1 7.5 μM): 91.5 ± 4.5% ^ | RANKL-induced mRNA expression level of c-Src ([2]; RANKL 10 ng/ml + KMUP-1 10 μM): 98.6 ± 6.2% ^ | amount of p65 in the cell nucleus induced by RANKL [3]: has the inhibiting effect on that p65 enters into a cell nucleus | differentiation into multinuclear osteoclast-like cells (TRAP staining) [4]: obviously express inhibition phenomenon related to dose | effect on mRNA expression of Fra-1 induced by RANKL (in words) [5, 7]: inhibits the mRNA expression | RANKL-induced mRNA expression level of Fra-1 ([5]; RANKL 10 ng/ml + KMUP-1 1 μM): 244.1 ± 38.9% ^b | RANKL-induced mRNA expression level of Fra-1 ([5]; RANKL 10 ng/ml + KMUP-1 2.5 μM): 285.1 ± 44.8% ^b | RANKL-induced mRNA expression level of Fra-1 ([5]; RANKL 10 ng/ml + KMUP-1 5 μM): 310.1 ± 56.3% ^b | RANKL-induced mRNA expression level of Fra-1 ([5]; RANKL 10 ng/ml + KMUP-1 7.5 μM): 238.7 ± 49.9% ^b | RANKL-induced mRNA expression level of Fra-1 ([5]; RANKL 10 ng/ml + KMUP-1 10 μM): 265.2 ± 64.1% ^b | expression of NFATc1 induced by RANKL [6]: can efficiently inhibit the expression of NFATc1 induced by RANKL
